Data taken from ChEMBL document CHEMBL2417399, “Discovery of highly potent and selective D4 ligands by interactive SAR study” (Bioorg Med Chem Lett, 2013).

Experiments:
D(2) dopamine receptor = D(2) dopamine receptor (Homo sapiens, UniProt P14416); experiment: Displacement of [3H]spiperone from human dopamine D2 receptor
D(4) dopamine receptor = target: T1, D(4) dopamine receptor (Homo sapiens, UniProt P21917); experiment: Binding affinity to human dopamine D4 receptor by radioligand binding assay
T1 sequence (P21917 whole entry): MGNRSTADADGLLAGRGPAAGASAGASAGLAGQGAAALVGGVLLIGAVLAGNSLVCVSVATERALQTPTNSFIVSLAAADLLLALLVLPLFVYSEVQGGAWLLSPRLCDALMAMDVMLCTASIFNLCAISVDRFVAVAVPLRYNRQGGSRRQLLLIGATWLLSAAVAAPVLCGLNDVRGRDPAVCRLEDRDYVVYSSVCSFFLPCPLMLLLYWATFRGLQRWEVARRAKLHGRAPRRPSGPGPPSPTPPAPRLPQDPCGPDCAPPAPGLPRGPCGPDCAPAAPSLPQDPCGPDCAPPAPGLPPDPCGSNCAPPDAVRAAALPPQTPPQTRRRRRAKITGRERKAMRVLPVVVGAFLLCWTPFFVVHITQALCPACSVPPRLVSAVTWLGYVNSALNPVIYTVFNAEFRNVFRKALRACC

D(1B) dopamine receptor = D(1B) dopamine receptor (Homo sapiens, UniProt P21918); experiment: Binding affinity to human dopamine D5 receptor by radioligand binding assay
D(1A) dopamine receptor = D(1A) dopamine receptor (Homo sapiens, UniProt P21728); experiment: Displacement of [3H]SCH23390 from human dopamine D1 receptor
D(3) dopamine receptor = D(3) dopamine receptor (Homo sapiens, UniProt P35462); experiment: Binding affinity to human dopamine D3 receptor by radioligand binding assay
Homo sapiens = species on record: Homo sapiens; experiment: Selectivity ratio of Ki for human dopamine D2 receptor to Ki for human dopamine D4 receptor

Chain of D(2) dopamine receptor (P14416 whole entry): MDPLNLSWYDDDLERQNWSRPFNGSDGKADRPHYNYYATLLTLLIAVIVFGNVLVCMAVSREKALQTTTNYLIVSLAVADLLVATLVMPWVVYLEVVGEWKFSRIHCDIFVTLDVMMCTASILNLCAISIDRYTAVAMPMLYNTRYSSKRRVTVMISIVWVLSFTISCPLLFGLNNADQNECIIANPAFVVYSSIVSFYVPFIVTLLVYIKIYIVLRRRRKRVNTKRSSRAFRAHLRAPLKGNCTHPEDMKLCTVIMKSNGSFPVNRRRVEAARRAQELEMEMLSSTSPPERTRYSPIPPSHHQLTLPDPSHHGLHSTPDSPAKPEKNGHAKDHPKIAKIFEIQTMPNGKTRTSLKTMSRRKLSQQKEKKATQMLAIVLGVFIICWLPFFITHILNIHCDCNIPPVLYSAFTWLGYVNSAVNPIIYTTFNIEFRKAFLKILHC
Chain of D(1A) dopamine receptor (P21728 whole entry): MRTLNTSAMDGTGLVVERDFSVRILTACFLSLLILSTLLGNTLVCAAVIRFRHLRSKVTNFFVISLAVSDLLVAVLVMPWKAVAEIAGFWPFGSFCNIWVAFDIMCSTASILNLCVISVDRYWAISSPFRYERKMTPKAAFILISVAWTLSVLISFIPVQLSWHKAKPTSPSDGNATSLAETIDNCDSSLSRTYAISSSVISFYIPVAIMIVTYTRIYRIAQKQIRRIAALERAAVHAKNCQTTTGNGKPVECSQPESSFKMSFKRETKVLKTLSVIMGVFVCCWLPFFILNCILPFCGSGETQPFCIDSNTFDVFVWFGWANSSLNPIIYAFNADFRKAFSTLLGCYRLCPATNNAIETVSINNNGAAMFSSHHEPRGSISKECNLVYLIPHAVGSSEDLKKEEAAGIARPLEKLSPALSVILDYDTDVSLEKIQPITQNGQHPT
Chain of D(1B) dopamine receptor (P21918 whole entry): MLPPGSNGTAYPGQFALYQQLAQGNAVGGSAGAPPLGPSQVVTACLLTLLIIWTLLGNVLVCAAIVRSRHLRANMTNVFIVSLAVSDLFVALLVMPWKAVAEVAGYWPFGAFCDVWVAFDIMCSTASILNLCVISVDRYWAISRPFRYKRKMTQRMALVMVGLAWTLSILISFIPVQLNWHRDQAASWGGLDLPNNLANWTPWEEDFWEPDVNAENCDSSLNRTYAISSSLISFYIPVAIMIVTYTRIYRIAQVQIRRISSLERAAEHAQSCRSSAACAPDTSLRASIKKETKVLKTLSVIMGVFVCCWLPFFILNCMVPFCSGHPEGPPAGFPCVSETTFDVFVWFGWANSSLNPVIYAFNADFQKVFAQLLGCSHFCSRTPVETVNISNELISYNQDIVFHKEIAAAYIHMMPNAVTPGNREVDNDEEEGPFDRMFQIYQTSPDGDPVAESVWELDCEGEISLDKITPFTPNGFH
Chain of D(3) dopamine receptor (P35462 whole entry): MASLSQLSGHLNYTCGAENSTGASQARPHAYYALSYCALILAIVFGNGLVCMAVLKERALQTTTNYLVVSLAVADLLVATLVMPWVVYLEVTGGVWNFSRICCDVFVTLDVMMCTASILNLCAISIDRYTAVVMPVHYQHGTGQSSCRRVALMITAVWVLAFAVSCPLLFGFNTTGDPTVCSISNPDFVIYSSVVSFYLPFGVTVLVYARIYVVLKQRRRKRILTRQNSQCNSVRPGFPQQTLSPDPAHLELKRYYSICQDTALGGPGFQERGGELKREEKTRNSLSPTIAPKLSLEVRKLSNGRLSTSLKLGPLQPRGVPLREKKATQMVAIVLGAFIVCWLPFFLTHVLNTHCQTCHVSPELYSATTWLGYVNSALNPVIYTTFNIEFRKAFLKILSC

Ratio Ki (Homo sapiens)	Structure (SMILES)	Ki (D(2) dopamine receptor)	Ki (D(4) dopamine receptor)	Ki (D(1B) dopamine receptor)	Ki (D(1A) dopamine receptor)	Ki (D(3) dopamine receptor)
	CCOc1ccccc1N1CCN(Cc2c[nH]c3ccccc23)CC1	473 nM	0.03 nM	> 10000 nM	> 10000 nM	103 nM
	Clc1cccc(N2CCN(Cc3c[nH]c4ccccc34)CC2)c1Cl		6.2 nM	> 10000 nM	> 10000 nM	123 nM
	Clc1ccc(N2CCN(Cc3cc4ccccn4n3)CC2)cc1	3200 nM	3.1 nM			5000 nM
	CCOc1ccccc1N1CCN(Cc2cccnc2)CC1	255 nM	0.7 nM	> 10000 nM	> 10000 nM	42 nM
	CCOc1ccccc1N1CCN(Cc2cccc3ccccc23)CC1	264 nM	2 nM	> 10000 nM	> 10000 nM	59 nM
14	CCOc1ccccc1N1CCN(Cc2cccs2)CC1	162 nM	3.9 nM	> 10000 nM	> 10000 nM	112 nM
	Clc1cccc(N2CCN(Cc3csc4ccccc34)CC2)c1Cl	383 nM	22.5 nM	> 10000 nM	> 10000 nM	52.5 nM
	Clc1cccc(N2CCN(Cc3cccc4ccccc34)CC2)c1Cl	351 nM	31 nM	> 10000 nM	> 10000 nM	92 nM
	CCOc1ccccc1N1CCN(Cc2csc3ccccc23)CC1	219 nM	4.5 nM	> 10000 nM	> 10000 nM	45.1 nM
	Clc1cccc(N2CCN(Cc3cccnc3)CC2)c1Cl	327 nM	4.4 nM	> 10000 nM	> 10000 nM	41 nM
